Experimental data from US6649394B1, “Topoisomerase IV, corresponding nucleotide sequences and uses thereof” (priority 1997, dated 2003).

Legend:
[1] = biological target: T1, wild-type GrlAB protein (DNA topoisomerase IV) of S. aureus (Staphylococcus aureus, UniProt P0C1S7+P0C1U9); test: Decatenation of kinetoplast DNA by purified wild-type GrlAB protein; assay type: biochemical
T1 construct: made in house; host or cells: E. coli XL1-Blue (pXL2340 for GrlA, pXL2320 for GrlB; pRSETB vector, T7 promoter)
Experimental: (§1) The ATP-dependent activity of decatenation of intertwined circular DNA molecules (catenanes) can be detected by carrying out the procedure, for example, in the following manner: a mixture of an extract of the E. coli strain XL1-blue pXL2320 (2.5 μg of proteins) and of an extract of the E. coli strain XL1-blue pXL2340 (2.5 μg of proteins) is incubated for 1 h at 37° C. in 40 μl of 50 mM Tris/HCl buffer pH 7.7 containing 1 mM ATP, 6 mM MgCl2, 200 mM glutamate, 10 mM DTT, 10 mM NaCl, 50 μg/ml of bovine serum albumin and 800 ng of kinetoplast DNA [consisting of a network of intertwined DNA molecules (catenanes) obtained from Crithidia fasciculata; TopoGene]. The reaction is stopped by adding 7 μl of a 250 mM EDTA solution (incubation 5 min at 37° C.), 5 μl of a 5% SDS and 2.5 mg/ml proteinase K mixture (incubation 30 min at 37° C.). The mixture is then analysed by electrophoresis on a 1% agarose gel in a 0.1 M Tris/borate buffer pH 8.3 containing 2 mM EDTA at 6 V/cm for 2 h 30 min. After staining the DNA with ethidium bromide (1 μg/ml), the DNA is quantified by scanning the negatives of photographs of the gels (Polaroid type 665 film) with the aid of a Bioimage 50S apparatus (Millipore). […] This activity is detected by the appearance of a DNA band with a size of about 2.5 kb and by the disappearance of the band of catenated DNA of very large size which penetrates very little into the gel during the electrophoretic run (FIG. 5).
(§2) To carry out the experiments described in the examples which follow, the incubations are carried out with the purified wild-type GrlAB proteins as described in Example 7, and with the mutant protein GrlA(Ser-80→Tyr)B as described in Example 8. The two wild-type and mutant GrlAB proteins are reconstituted by mixing equimolar quantities of their two GrlA and GrlB subunits.

[2] = biological target: T2, mutant protein GrlA(Ser-80→Tyr)B (DNA topoisomerase IV) of S. aureus (Staphylococcus aureus, UniProt P0C1S7+P0C1U9, F80Y); test: biochemical
T2 construct: made in house; host or cells: E. coli XL1-Blue (pXL2742 for GrlA Ser-80→Tyr, pXL2320 for GrlB)
Experimental: as §1
(§3) The ATP-dependent activities of supercoiled DNA relaxation, on the one hand, and of decatenation of intertwined circular DNA molecules, on the other hand, are detected in this extract as described in Example 7, by incubating, in the same reaction mixture, an acellular extract of the E. coli strain XL1-Blue pXL2742 containing the protein GrlA(Ser-80→Tyr) and an extract of the E. coli strain XL1-Blue pXL2320 containing the GrlB protein.
as §2

[3] = test system: mutant protein GrlA(Ser-80→Tyr)B (DNA topoisomerase IV) of S. aureus; test: biochemical; parameters: species or system Staphylococcus aureus; conditions: GrlA(Ser-80→Tyr)B versus wild-type GrlAB
Experimental: as §1, §3, §2

CC1COc2c(N3CCN(C)CC3)c(F)cc3c(=O)c(C(=O)O)cn1c23 (centres unmarked) [Ofloxacin]
IC50 [1]: 27.7 µM
IC50 [2]: 692 µM

O=C(O)c1cn(C2CC2)c2cc(N3CCNCC3)c(F)cc2c1=O [ciprofloxacin]
concentration above which the activity of decatenation of kinetoplast DNA is completely inhibited ([1]; purified wild-type GrlAB enzyme): > 10 µg/mL

CO[C@@H]1[C@@H](OC(N)=O)[C@@H](O)[C@H](Oc2ccc3c(O)c(NC(=O)c4ccc(O)c(CC=C(C)C)c4)c(=O)oc3c2C)OC1(C)C [novobiocin]
IC50 [1]: ~49 µM
IC50 [2]: ~49 µM

C[C@@H]1CN(c2c(F)c(N)c3c(=O)c(C(=O)O)cn(C4CC4)c3c2F)C[C@H](C)N1 [sparfloxacin]
IC50 [1]: 15.3 µM
IC50 [2]: 1270 µM
concentration for 50% inhibition with mutant enzyme relative to wild-type enzyme [3]: 80 times
